# Test results taken from patent publication US20080234130A1, “Compositions providing tolerance to multiple herbicides and methods of use thereof” (priority 2005, published 2008).
# How the values were obtained:
# [1] = tested on: parent elite stiff stalk inbred corn; assay: Preemergence effect of ALS herbicides (fresh weight, visual injury); conditions: 200 g/ha, mean of four replications; for % Visual Injury Patent elite stiff stalk inbred: 4 weeks after treatment, 0% no injury, 100% plant death; for Fresh Weight (g) patent elite stiff stalk inbred: fresh shoots 4 weeks after treatment, untreated 36.7 g
# control maize = assay: Postemergence herbicide spray at V2, injury evaluated 10-14 days after application; assay type: in vivo; conditions: tribenuron, chlorimuron, imazapyr 200 g ai/ha, metsulfuron-methyl 0.5 oz ai/ac or 35 g ai/ha, 10-14 days after spray
# GAT-HRA maize = assay: as above
# Experimental: GAT-HRA maize plants were evaluated for tolerance to glyphosate and other herbicides. One protocol used in this evaluation was as follows. At the V2 stage (Ritchie and Hanway (1982), “How a corn plant develops” Spec. Rep. 48. (Coop. Ext. Ser., Iowa State Univ., Ames, Iowa)), plant heights were measured and herbicides were applied by spray application. Ten to fourteen days after the spray application, the transgenic plants were evaluated for injury symptoms and measured for plant height again in order to determine plant growth rates.
# Plants were then evaluated at various times after treatment, such as 10 or 14 days after treatment. […] Leaf samples were taken from GAT-HRA plants and used in quantitative PCR analysis and other analyses to determine the number and arrangement of copies of the GAT and HRA polynucleotides that had been integrated into the plant genome.
# Other protocols for evaluation included treatment with imidazolinone herbicides, such as the commercial herbicide Lightning® (a combination of imazapyr and imazethapyr), which was applied to GAT-HRA maize at the V2 leaf stage at four times the field label rate (250 g ai/ha). […] Another protocol for evaluation included treatment with imidazolinone herbicides as well as sulfonylurea and glyphosate herbicides. In these tests, GAT-HRA maize was treated with various combinations of Lightning® (imazapyr and imazethapyr), Basis® (rimsulfuron and thifensulfuron-methyl) and WeatherMAX® (glyphosate potassium salt). These herbicides were applied at the V2 stage as follows: Lightning® at twice the field label rate (1.8 oz ai/ac (133 ml ai/ha)), Basis® at twice the field label rate (0.5 oz ai/ac (36.9 ml ai/ha)) and WeatherMax® at four times the field label rate (43 oz ai/ac). Fourteen days after the treatment application, the plants were evaluated. […] “Field label rate” refers to the application rate specified on the product label. Where the application rate for a particular situation is a range of rates, as used herein, the term “field label rate” indicates the upper end of that range. […]
# [2] = tested on: heterozygous GAT-HRA corn; assay: Preemergence effect of ALS herbicides (fresh weight, visual injury); conditions: 200 g/ha, mean of four replications; for % Visual Injury Heterozygous GAT-HRA: 4 weeks after treatment, 0% no injury, 100% plant death; for Fresh Weight (g) Heterozygous GAT-HRA: fresh shoots 4 weeks after treatment, untreated 47.0 g
# [3] = tested on: parent elite stiff stalk inbred corn; assay: Postemergence effect of ALS herbicides, glyphosate and glufosinate (fresh weight, visual injury); conditions: 200 g/ha (glyphosate 3472 g ae/ha, glufosinate ammonium 1870 g/ha), mean of four replications; for % Visual Injury Parent elite stiff stalk inbred: 2 weeks after treatment, 0% no injury, 100% plant death; for Fresh Weight (g) Parent elite stiff stalk inbred: applied two weeks after planting, fresh shoots 2 weeks after treatment, untreated 76.4 g
# [4] = tested on: heterozygous GAT-HRA corn; assay: as above; conditions: 200 g/ha (glyphosate 3472 g ae/ha, glufosinate ammonium 1870 g/ha), mean of four replications; for % Visual Injury Heterozygous GAT-HRA: 2 weeks after treatment, 0% no injury, 100% plant death; for Fresh Weight (g) Heterozygous GAT-HRA: applied two weeks after planting, fresh shoots 2 weeks after treatment, untreated 98.8 g
# [5] = tested on: non-transgenic control soybeans; assay: Postemergence greenhouse spray of soybeans, visual injury (Table 11); conditions: tribenuron-methyl 35 g/ha
# Experimental: Young regenerated transgenic plants were sprayed with 1× glyphosate (1× rate of glyphosate is 1120 g/ha of glyphosate isopropylamine) to cull segregants. Four replications were performed for each treatment. Plants were then treated with various herbicides, including glyphosate and ALS-inhibitor herbicides.
# Six soybean seeds from each variety to be assayed were planted 1 cm deep in 5.5 (13.97 cm) inch square plastic container of a synthetic growth medium. […] When possible, containers were thinned to two uniform plants. Non-transgenic lines were thinned to two uniform plants per container.
# Results are expressed below in Table 11 as the mean of four replications.
Compound,% Visual Injury Patent elite stiff stalk inbred [1] [%],Fresh Weight (g) patent elite stiff stalk inbred [1] [g],"damage from the treatment, control maize (control maize)","damage from the treatment, GAT-HRA maize (GAT-HRA maize; postemergence spray at V2, tribenuron (Express), chlorimuron (Classic), imazapyr (Arsenal) 200 g ai/ha, metsulfuron-methyl (Ally) 0.5 oz ai/ac or 35 g ai/ha, 10-14 days after spray)",% Visual Injury Heterozygous GAT-HRA [2] [%],Fresh Weight (g) Heterozygous GAT-HRA [2] [g],% Visual Injury Parent elite stiff stalk inbred [3] [%],Fresh Weight (g) Parent elite stiff stalk inbred [3] [g],% Visual Injury Heterozygous GAT-HRA [4] [%],Fresh Weight (g) Heterozygous GAT-HRA [4] [g],"damage from the treatment, GAT-HRA maize (GAT-HRA maize; in vivo)",effect on non-transgenic control soybeans [5]
"CCOC(=O)c1ccccc1S(=O)(=O)NC(=O)Nc1nc(Cl)cc(OC)n1 [Chlorimuron-ethyl, ethyl 2-[[[[(4-chloro-6-methoxy-2-pyrimidinyl)amino]carbonyl]amino]sulfonyl]-benzoate]",100,9.3,severely damaged or killed,no significant damage,10,39.4,93,10.1,15,95.5,–,–
"COC(=O)c1ccccc1S(=O)(=O)NC(=O)Nc1nc(C)nc(OC)n1 [Metsulfuron-methyl, methyl 2-[[[[(4-methoxy-6-methyl-1,3,5-triazin-2-yl)amino]carbonyl]amino]sulfonyl]benzoate]",100,–,severely damaged or killed,–,0,–,100,–,14,–,no significant damage,–
CC(C)C1(C)N=C(c2ncccc2C(=O)O)NC1=O (stereo not shown) [Imazapyr],99,–,severely damaged or killed,–,30,–,100,–,1,–,no significant damage,–
"COC(=O)c1sccc1S(=O)(=O)NC(=O)Nc1nc(C)nc(OC)n1 [Thifensulfuron-methyl, methyl 3-[[[[(4-methoxy-6-methyl-1,3,5-triazin-2-yl)amino]carbonyl]amino]sulfonyl]-2-thiophenecarboxylate]",88,–,–,–,3,–,98,–,10,–,–,–
"COC(=O)c1ccccc1S(=O)(=O)NC(=O)Nc1nc(C)cc(C)n1 [Sulfometuron-methyl, methyl 2-[[[[(4,6-dimethyl-2-pyrimidinyl)amino]carbonyl]amino]sulfonyl]-benzoate]",100,0.0,–,–,6,47.3,100,2.0,2,104.5,–,–
"COc1nc(C)nc(NC(=O)NS(=O)(=O)c2ccccc2CCC(F)(F)F)n1 [Prosulfuron, N-[[(4-methoxy-6-methyl-1,3,5-triazin-2-yl)amino]carbonyl]-2-(3,3,3-trifluoropropyl)benzenesulfonamide]",68,–,–,–,9,–,25,–,29,–,–,–
"COc1cc(OC)nc(Sc2cccc(Cl)c2C(=O)[O-])n1.[Na+] [Pyrithiobac Na^+, pyrithiobac-sodium]",100,0.0,–,–,0,48.6,100,2.8,9,87.9,–,–
"CCS(=O)(=O)c1nc2ccccn2c1S(=O)(=O)NC(=O)Nc1nc(OC)cc(OC)n1 [Sulfosulfuron, N-[[(4,6-dimethoxy-2-pyrimidinyl)amino]carbonyl]-2-(ethylsulfonyl)imidazo[1,2-a]pyridine-3-sulfonamide]",100,–,–,–,18,–,97,–,3,–,–,–
"CCOc1nc(NC)nc(NC(=O)NS(=O)(=O)c2ccccc2C(=O)OC)n1 [Ethametsulfuron-methyl, methyl 2-[[[[[4-ethoxy-6-(methylamino)-1,3,5-triazin-2-yl]amino]carbonyl]amino]sulfonyl]benzoate]",100,1.6,–,–,88,50.1,96,5.6,6,98.0,–,–
CCc1cnc(C2=NC(C)(C(C)C)C(=O)N2)c(C(=O)O)c1 (stereo not shown) [Imazethapyr],69,–,–,–,20,–,97,–,9,–,–,–
CC(C)C1(C)N=C(c2nc3ccccc3cc2C(=O)O)NC1=O (stereo not shown) [Imazaquin],99,1.5,–,–,28,45.4,100,4.4,2,113.3,–,–
"COC(=O)c1ccccc1S(=O)(=O)NC(=O)N(C)c1nc(C)nc(OC)n1 [Tribenuron-methyl, methyl 2-[[[[N-(4-methoxy-6-methyl-1,3,5-triazin-2-yl)-N-methylamino]carbonyl]-amino]sulfonyl]benzoate]",66,–,–,–,25,–,100,–,8,–,–,killed by the treatment
"COC(=O)c1ccccc1CS(=O)(=O)NC(=O)Nc1nc(OC)cc(OC)n1 [Bensulfuron-methyl, methyl 2-[[[[[(4,6-dimethoxy-2-pyrimidinyl)amino]carbonyl]amino]sulfonyl]methyl]benzoate]",23,–,–,–,10,–,93,–,14,–,–,–
